Assay results: patent US11591363B2, “Crystalline forms of beta-sitosterol” (CENTER FOR I[…] IN CRYSTAL ENGINEERING, S.L., priority 2017, dated 2023)
Converted amounts (≈) assume the structure as drawn. Where two headings read alike, the source gives them in different places.

Legend:
[1] = Particle size test by laser diffraction; assay type: physicochemical
Text: This test provides the particle size of the co-crystals of the present invention in comparison with the comparaitive Standard sample of beta-Sitosterol from the Ph. Eu. Reference Standard, ref. (Y0001615)
7.1. Tested Samples • Comparative sample A: comparaitive Standard sample of beta-Sitosterol from the Ph. Eu. Reference Standard, ref. (Y0001615) • Sample A: hydrate crystal of beta-sitosterol having 1.25 molecules of water of the present invention • Sample B: cocrystal of beta-sitosterol and gallic acid Form 5 of the present invention • Sample C: cocrystal of beta-sitosterol and propionic acid Form 2 of the present invention
The particle size was performed by laser diffraction. For this purpose, a Beckman-Coulter model. LS13320 laser diffractometer (Fullerton, Calif., USA) was equipped with a Micro. Liquid Module (MLM) wet dispersion modul, an an optic model (Fraunhofer. Rdf, PIDS). The measurement range is 0.4-2000 μm.

[2] = Solubility test, shake-flask in FaSSIF-V2; assay type: physicochemical; conditions: for solubility at 24 h: thermodynamic from solid, read-out: Log S (logarithm of S in mol/L) (converted); for solubility, comparison between tested samples: FaSSIF-V2, pH 6.5, 25° C.
Method: This test is focused on evaluating the solubility in Fasted State Simulated Intestinal Fluid (FaSSIF-V2).
5.1. Samples • Comparative sample A (reference): Standard sample of beta-Sitosterol from the Ph. Eu. Reference Standard, ref. (Y0001615) • Sample A: hydrate crystal of beta-sitosterol having 1.25 molecules of water of the present invention • Sample B: cocrystal of beta-sitosterol and gallic acid Form 5 of the present invention
Solubility is determined in FaSSIF-V2 media, prepared as stated by Biorelevant.com using maleic acid buffer (pH=6.5).
All experiments are done under temperature control at 25±1° C. The weight of tested samples expressed in mg, and FaSSIF final volume expressed in mL are as defined in Table below:
Shaking time: 24 h in a rotational stirrer. After 4-5 h of shaking, pH is measured and readjusted to the initial value (6.5) in case it is needed. • Equilibration time: 24 h • Final pH measurement • Phase separation: filtration through a hydrophilic filter (PTFE membrane, 0.45 μm porous size, 4 mm diameter, Millex-LH, Millipore). Before the filtration, the filter was conditioned with sample solution for 1 h. After that time, filtration started rejecting the first drops of sample. • Solid form characterization: solid obtained after filtration is analysed by XRPD to know the exact solid form obtained after the shake-flask procedure. In case of cocrystals, XRPD analysis confirms that experiments are done under eutectic point conditions. • Liquid phase is used for API and coformer quantification.
5.3.2. HPLC Quantification • Instrument: Shimadzu HPLC, with diode array detector (SPD-M10AVPI), two pumps (LC-10ADVP), autoinjector (SIL-10ADVP) and column oven (CTO-10ASVP). • Column:
For comparative sample A and sample A quantification: Phenomenex Kinetex C18, 100×4.6 mm, 2.6 μm. For sample B quantification: Phenomenex Luna C18, 150×4.6 mm, 5 μm. • Conditions:
For comparative sample A and sample A quantification: Mobile phase composed of 80% Methanol-20% Acetonitrile. Isocratic conditions. Flow: 0.8 mL/min. Injection volume: 20 μL.
For sample B quantification: Mobile phase composed of 20 mM formic acid at pH=3 (A) and methanol (B). Gradient conditions: 0-3 min, 5% B; 8 min, 10% B; 15 min, 100% B; 17 min, 5% B; 25 min, 5% B. Flow: 1 mL/min. Injection volume: 10 μL.
Quantification wavelength: 210 nm for comparative sample A and 280 nm for sample A.
The amounts of comparative sample A, sample A and sample B in the filtered solutions coming from Shake-Flask (SF) experiments have been quantified according to the described methodology.
Solubility of the samples A and B has been calculated through the equilibrium concentrations in the eutectic point as described in “S. J. Bethune, N. Huang, A. Jayasankar, N. Rodriguez-Hornedo, Crystal Growth and Design 9, 2009, 3976-3988”, taking into account the stoichiometry of each sample.

[3] = system: Plasma triglyceride levels; assay: Activity test: plasma triglycerides after oral load of lard; assay type: in vivo, Golden Syrian male Hamsters; conditions: for reduction of the plasmatic triglyceride concentration: T5 (5 h) vs T0
[4] = system: circulating β-sitosterol levels; assay: Activity test: sitosterolemia (plasma beta-sitosterol, GC-FID) after oral load of lard; assay type: in vivo, Golden Syrian male Hamsters; conditions: for decrease in circulating levels of β-sitosterol: 5 h post-treatment (T5) with respect to T0 value, oral load of lard 2.5 g/kg BW supplemented with 0.513 g/kg BW
[5] = Bioavailability assessment: plasma beta-sitosterol after 21 days high-fat diet
[6] = system: Plasma cholesterol levels; assay: Activity test: plasma cholesterol after oral load of lard; assay type: in vivo, Golden Syrian male Hamsters; conditions: measured at 5 h (T5) vs T0, oral load of lard 2.5 g/kg BW supplemented with 0.513 g/kg BW
[7] = FaSSIF-V2, pH 6.5, 25±1° C., shake-flask 24 h, value (SD)

Compound: CC[C@H](CC[C@@H](C)[C@H]1CC[C@H]2[C@@H]3CC=C4C[C@@H](O)CC[C@]4(C)[C@H]3CC[C@]12C)C(C)C [Comparative sample A, beta-sitosterol]
- D10 [1]: 44.62 μm
- D50 [1]: 108.0 μm
- D90 [1]: 178.8 μm
- D(3, 2) surface weighted mean diameter [1]: 30.19 μm
- Mean particle size [1]: 109.9 μm
- solubility at 24 h ([2]; FaSSIF-V2, 25 °C, pH 6.5, fassif, FaSSIF-V2, pH 6.5, 25±1° C., shake-flask 24 h, value (SD)): 0.851 µM (≈ 0.353 µg/mL)
- [API] concentration of beta-sitosterol in the solutions coming from SF experiments [2, 7]: 0.36 (0.06) mg/mL

Compound: CC[C@H](CC[C@@H](C)[C@H]1CC[C@H]2[C@@H]3CC=C4C[C@@H](O)CC[C@]4(C)[C@H]3CC[C@]12C)C(C)C [cocrystal Form 2, cocrystal of beta-sitosterol and propionic acid]
- D10 ([1]; listed as Sample C): 6.671 μm
- D50 ([1]; listed as Sample C): 28.01 μm
- D90 ([1]; listed as Sample C): 47.60 μm
- D(3, 2) surface weighted mean diameter ([1]; listed as Sample C): 13.19 μm
- Mean particle size ([1]; listed as Sample C): 27.77 μm
- plasma triglyceride concentrations at T5, comparison between groups (FIG. 15) ([3]; 5 h post-oral fat load, 0.513 g/kg BW): lower levels at T5 in comparison with both Compound A and compound B
- reduction of the plasmatic triglyceride concentration ([3]; oral load of lard 2.5 g/kg BW supplemented with 0.513 g/kg BW, listed as test sample C): 20%
- decrease in circulating levels of β-sitosterol ([4]; listed as test sample C): 14%
- Fold-change (FC) of increase of circulating beta-sitosterol with respect to controls (comparative group A) ([5]; 0.264 g beta-sitosterol/kg BW, control set to 1, listed as test sample C): 6.4
- FC increment of circulating beta-sitosterol in relation to reference sample B1 value ([5]; same dose 0.264 g beta-sitosterol/kg BW): 2.7
- decrease of plasmatic cholesterol levels ([6]; listed as Test sample C): 21%

Compound: CC[C@H](CC[C@@H](C)[C@H]1CC[C@H]2[C@@H]3CC=C4C[C@@H](O)CC[C@]4(C)[C@H]3CC[C@]12C)C(C)C [comparative sample B, beta-sitosterol]
- increase in triglyceridemia at 5 h (T5) ([3]; T5 vs T0, oral load of lard 2.5 g/kg BW supplemented with 0.513 g/kg BW): 39%
- decrease in circulating levels of β-sitosterol [4]: 23%
- percentage of variation on β-sitosterol plasma levels T5 vs T0, comparison with control (FIG. 16) ([4]; 5 h post-treatment, 0.513 g/kg BW): decrease in comparison with control (group A)
- decrease of plasmatic cholesterol levels [6]: 25%

Compound: CC[C@H](CC[C@@H](C)[C@H]1CC[C@H]2[C@@H]3CC=C4C[C@@H](O)CC[C@]4(C)[C@H]3CC[C@]12C)C(C)C [hydrate crystal form of beta-sitosterol, beta-sitosterol]
- D10 ([1]; listed as Sample A): 4.145 μm
- D50 ([1]; listed as Sample A): 16.39 μm
- D90 ([1]; listed as Sample A): 34.63 μm
- D(3, 2) surface weighted mean diameter ([1]; listed as Sample A): 8.558 μm
- Mean particle size ([1]; listed as Sample A): 18.12 μm
- reduction of the plasmatic triglyceride concentration ([3]; oral load of lard 2.5 g/kg BW supplemented with 0.513 g/kg BW, listed as test sample D): 2%
- decrease in circulating levels of β-sitosterol ([4]; listed as test sample D): 34%
- solubility at 24 h ([2]; 25 °C, FaSSIF-V2, pH 6.5, 25±1° C., calculated through the equilibrium concentrations in the eutectic point, taking into account stoichiometry): 5.01 µM
- solubility, comparison between tested samples [2]: more soluble than the commercially available beta-sitosterol
- [API] concentration of beta-sitosterol in the solutions coming from SF experiments ([2]; FaSSIF-V2, pH 6.5, 25±1° C., shake-flask 24 h, value (SD), listed as Sample A): 2.5 (1) mg/mL
- decrease of plasmatic cholesterol levels ([6]; listed as test sample D): 29%

Compound: CC[C@H](CC[C@@H](C)[C@H]1CC[C@H]2[C@@H]3CC=C4C[C@@H](O)CC[C@]4(C)[C@H]3CC[C@]12C)C(C)C [reference sample B1, beta-sitosterol]
- Fold-change (FC) of increase of circulating beta-sitosterol with respect to controls (comparative group A) ([5]; 0.264 g beta-sitosterol/kg BW, control set to 1): 2.4

Compound: CC[C@H](CC[C@@H](C)[C@H]1CC[C@H]2[C@@H]3CC=C4C[C@@H](O)CC[C@]4(C)[C@H]3CC[C@]12C)C(C)C [reference sample B2, beta-sitosterol]
- Fold-change (FC) of increase of circulating beta-sitosterol with respect to controls (comparative group A) ([5]; 0.528 g/kg BW, control set to 1): 5.3

Compound: cocrystal of beta-sitosterol and benzyl alcohol [cocrystal Form 4]
- reduction of the plasmatic triglyceride concentration ([3]; oral load of lard 2.5 g/kg BW supplemented with 0.513 g/kg BW): 7%
- decrease in circulating levels of β-sitosterol [4]: 12%
- decrease of plasmatic cholesterol levels [6]: 31%

Compound: cocrystal of beta-sitosterol and gallic acid [cocrystal Form 5]
- D10 [1]: 3.102 μm
- D50 [1]: 10.24 μm
- D90 [1]: 23.21 μm
- D(3, 2) surface weighted mean diameter [1]: 6.009 μm
- Mean particle size [1]: 12.05 μm
- solubility, comparison between tested samples [2]: more soluble than the remaining tested samples
- [API] concentration of beta-sitosterol in the solutions coming from SF experiments [2, 7]: 3.0 (1.5) mg/mL
- Log S (logarithm of S in mol/L) ([2]; FaSSIF-V2, pH 6.5, 25±1° C., calculated through the equilibrium concentrations in the eutectic point, taking into account stoichiometry): −4.7 (0.1) mol/L
- Fold-change (FC) of increase of circulating beta-sitosterol with respect to controls (comparative group A) ([5]; equivalent to 0.158 g of beta-sitosterol/kg BW, control set to 1): 4.7
- Fold-change (FC) of increase of circulating beta-sitosterol with respect to controls (comparative group A) ([5]; equivalent to 0.330 g of beta-sitosterol/kg BW, control set to 1): 7.9
